Key:
HBV [1] = assay: Anti-HBV activity, HepG2.2.15 cell line, HBV DNA from secreted virions by realtime PCR; type: cell-based, Hepatitis B virus; details: Hepatitis B virus, HepG2.2.15, 144 h, HepG2.2.15 cells, 6 days of treatment
[2] = Cytotoxicity in HepG2 cells, Resazurin assay; type: cell-based; details: human, incubated for 4 days, Resazurin viability
HBV [3] = assay: Anti-HBV activity, HepG2.117 cell line (Tet-off), intracellular HBV DNA by realtime PCR; type: cell-based, Hepatitis B virus; details: Hepatitis B virus, HepG2.117, 72 h, HepG2.117 cells, 3 days of treatment

Cc1sc(S(=O)(=O)N[C@@H](C)C(F)(F)F)cc1C(=O)Nc1ccc(F)c(C#N)c1 [Compound 46, N-(3-cyano-4-fluoro-phenyl)-2-methyl-5-[[(1S)-2,2,2-trifluoro-1-methyl-ethyl]sulfamoyl]thiophene-3-carboxamide]
EC50 (HBV [1]): 400 nM | CC50 at 4 days [2]: > 25000 nM | EC50 (HBV [3]): 420 nM

CC[C@@H](C)NS(=O)(=O)c1cc(C(=O)Nc2ccc(F)c(F)c2)c(C)s1 [Compound 18, N-(3,4-difluorophenyl)-2-methyl-5-[[(1R)-1-methylpropyl]sulfamoyl]thiophene-3-carboxamide]
EC50 (HBV [1]): 65 nM | CC50 at 4 days [2]: 14600 nM | EC50 (HBV [3]): 82 nM

Cc1cc(NC(=O)c2cc(S(=O)(=O)N[C@H]3CCOC3)c(C)s2)ccc1F [Compound 9, N-(4-fluoro-3-methyl-phenyl)-5-methyl-4-[[(3S)-tetrahydrofuran-3-yl]-sulfamoyl]thiophene-2-carboxamide]
EC50 (HBV [1]): 790 nM | CC50 at 4 days [2]: > 25000 nM | EC50 (HBV [3]): 1100 nM

Cc1sc(S(=O)(=O)NC(CF)CF)cc1C(=O)Nc1ccc(F)c(F)c1 [Compound 52, N-(3,4-difluorophenyl)-5-[[2-fluoro-1-(fluoromethyl)ethyl]sulfamoyl]-2-meth thiophene-3-carboxamide]
EC50 (HBV [1]): 170 nM | CC50 at 4 days [2]: > 25000 nM | EC50 (HBV [3]): 170 nM

Cc1sc(S(=O)(=O)NC(C)(C)C)cc1C(=O)Nc1ccc(F)c(F)c1 [Compound 17, 5-(tert-butylsulfamoyl)-N-(3,4-difluorophenyl)-2-methyl-thiophene-3-carboxamide]
EC50 (HBV [1]): 120 nM | CC50 at 4 days [2]: 11700 nM | EC50 (HBV [3]): 130 nM

Cc1cc(NC(=O)c2cc(S(=O)(=O)N[C@H]3CCOC3)sc2C(F)(F)F)ccc1F [Compound 5, N-(4-fluoro-3-methyl-phenyl)-5-[[(3S)-tetrahydrofuran-3-yl]sulfamoyl]-2-(trifluoromethyl)thiophene-3-carboxamide]
EC50 (HBV [1]): 1670 nM | CC50 at 4 days [2]: > 25000 nM | EC50 (HBV [3]): 1180 nM

Cc1cc(NC(=O)c2cc(S(=O)(=O)NC(C)(C)C(N)=O)sc2C)ccc1F [Compound 33, 5-[(2-Amino-1,1-dimethyl-2-oxoethyl)sulfamoyl]-N-(4-fluoro-3-methylphenyl)-2-methylthiophene-3-carboxamide]
EC50 (HBV [1]): 140 nM | CC50 at 4 days [2]: > 25000 nM | EC50 (HBV [3]): 130 nM

Cc1cc(NC(=O)c2cc(S(=O)(=O)NC3(C)COC3)sc2C)cc(C#N)c1F [Compound 44, N-(3-cyano-4-fluoro-5-methyl-phenyl)-2-methyl-5-[(3-methyloxetan-3-yl)sulfamoyl]thiophene-3-carboxamide]
EC50 (HBV [1]): 820 nM | CC50 at 4 days [2]: > 25000 nM | EC50 (HBV [3]): 450 nM

COC(=O)C(C)(C)NS(=O)(=O)c1cc(C(=O)Nc2ccc(F)c(C)c2)c(C)s1 [Compound 31, Methyl N-({4-[(4-fluoro-3-methylphenyl)carbamoyl]-5-methylthiophen-2-yl}sulfonyl)-2-methylalaninate]
EC50 (HBV [1]): 520 nM | CC50 at 4 days [2]: > 25000 nM | EC50 (HBV [3]): 170 nM

Cc1cc(NC(=O)c2cc(S(=O)(=O)N[C@H](C)C(F)(F)F)sc2C)ccc1F [Compound 39, N-(4-Fluoro-3-methylphenyl)-2-methyl-5-{[(1R)-2,2,2-trifluoro-1-methylethyl]sulfamoyl}thiophene-3-carboxamide]
EC50 (HBV [1]): 70 nM | CC50 at 4 days [2]: > 25000 nM | EC50 (HBV [3]): 60 nM

Cc1cc(NC(=O)c2scc(S(=O)(=O)N[C@H]3CCOC3)c2C)ccc1F [Compound 11, N-(4-fluoro-3-methyl-phenyl)-3-methyl-4-[[(3S)-tetrahydrofuran-3-yl]-sulfamoyl]thiophene-2-carboxamide]
EC50 (HBV [1]): 190 nM | CC50 at 4 days [2]: > 25000 nM | EC50 (HBV [3]): 310 nM

Cc1sc(S(=O)(=O)N[C@@H](C)C(F)(F)F)cc1C(=O)Nc1cc(F)c(F)c(Cl)c1 [Compound 37, N-(3-Chloro-4,5-difluorophenyl)-2-methyl-5-{[(1S)-2,2,2-trifluoro-1-methylethyl]sulfamoyl}thiophene-3-carboxamide]
EC50 (HBV [1]): 160 nM | CC50 at 4 days [2]: 8200 nM | EC50 (HBV [3]): 220 nM

Cc1sc(S(=O)(=O)N[C@H](C)C(F)(F)F)cc1C(=O)Nc1ccc(F)c(Cl)c1 [Compound 38, N-(3-Chloro-4-fluorophenyl)-2-methyl-5-{[(1R)-2,2,2-trifluoro-1-methylethyl]sulfamoyl}thiophene-3-carboxamide]
EC50 (HBV [1]): 40 nM | CC50 at 4 days [2]: 14400 nM | EC50 (HBV [3]): 80 nM

Cc1sc(S(=O)(=O)NC2(C)COC2)cc1C(=O)Nc1ccc(F)c(Br)c1 [Compound 29, N-(3-Bromo-4-fluorophenyl)-2-methyl-5-[(3-methyloxetan-3-yl)-sulfamoyl]thiophene-3-carboxamide]
EC50 (HBV [1]): 120 nM | CC50 at 4 days [2]: 13200 nM | EC50 (HBV [3]): 120 nM

Cc1sc(S(=O)(=O)N[C@H](C)C(F)(F)F)cc1C(=O)Nc1ccc(F)c(F)c1 [Compound 56, N-(3,4-difluorophenyl)-2-methyl-5-[[(1R)-2,2,2-trifluoro-1-methyl-ethyl]sulfamoyl]thiophene-3-carboxamide]
EC50 (HBV [1]): 130 nM | CC50 at 4 days [2]: 14900 nM | EC50 (HBV [3]): 70 nM

Cc1sc(S(=O)(=O)NC(C)(C)C)cc1C(=O)Nc1ccc(F)c(C#N)c1 [Compound 24, 5-(tert-Butylsulfamoyl)-N-(3-cyano-4-fluorophenyl)-2-methylthiophene-3-carboxamide]
EC50 (HBV [1]): 120 nM | CC50 at 4 days [2]: > 25000 nM | EC50 (HBV [3]): 150 nM

Cc1sc(S(=O)(=O)NC2(C(F)(F)F)CCOC2)cc1C(=O)Nc1ccc(F)c(C#N)c1 (racemic) [Compound 54, N-(3-cyano-4-fluoro-phenyl)-2-methyl-5-[[3-(trifluoromethyl)tetrahydrofuran-3-yl]sulfamoyl]thiophene-3-carboxamide]
EC50 (HBV [1]): 180 nM | CC50 at 4 days [2]: > 25000 nM | EC50 (HBV [3]): 100 nM

Cc1sc(S(=O)(=O)NC2(C(F)(F)F)CC2)cc1C(=O)Nc1ccc(F)c(C#N)c1 [Compound 53, N-(3-cyano-4-fluoro-phenyl)-2-methyl-5-[[1-(trifluoromethyl)cyclo-propyl]sulfamoyl]thiophene-3-carboxamide]
EC50 (HBV [1]): 120 nM | CC50 at 4 days [2]: 13700 nM | EC50 (HBV [3]): 140 nM

Cc1sc(S(=O)(=O)NC(C)(C)C)cc1C(=O)Nc1ccc(F)c(Cl)c1 [Compound 26, 5-(tert-Butylsulfamoyl)-N-(3-chloro-4-fluorophenyl)-2-methylthiophene-3-carboxamide]
EC50 (HBV [1]): 170 nM | CC50 at 4 days [2]: 11500 nM | EC50 (HBV [3]): 51 nM

Cc1sc(S(=O)(=O)NC(C)(C)C(N)=O)cc1C(=O)Nc1ccc(F)c(F)c1 [Compound 32, 5-[(2-Amino-1,1-dimethyl-2-oxoethyl)sulfamoyl]-N-(3,4-difluorophenyl)-2-methylthiophene-3-carboxamide]
EC50 (HBV [1]): 220 nM | CC50 at 4 days [2]: > 25000 nM | EC50 (HBV [3]): 300 nM

Cc1cc(NC(=O)c2cc(S(=O)(=O)NC(C)(C)C)sc2C)ccc1F [Compound 25, 5-(tert-Butylsulfamoyl)-N-(4-fluoro-3-methylphenyl)-2-methylthiophene-3-carboxamide]
EC50 (HBV [1]): 53 nM | CC50 at 4 days [2]: > 25000 nM | EC50 (HBV [3]): 58 nM

Cc1cc(NC(=O)c2cc(S(=O)(=O)NC3(C)COC3)c(C)s2)ccc1F [Compound 10, N-(4-fluoro-3-methyl-phenyl)-5-methyl-4-[(3-methyloxetan-3-yl)-sulfamoyl]thiophene-2-carboxamide]
EC50 (HBV [1]): 430 nM | CC50 at 4 days [2]: > 25000 nM | EC50 (HBV [3]): 560 nM

Cc1sc(S(=O)(=O)NC(C)(C)C(F)(F)F)cc1C(=O)Nc1ccc(F)c(F)c1 [Compound 50, N-(3,4-difluorophenyl)-2-methyl-5-[(2,2,2-trifluoro-1,1-dimethyl-ethyl)sulfamoyl]thiophene-3-carboxamide]
EC50 (HBV [1]): 140 nM | CC50 at 4 days [2]: > 25000 nM | EC50 (HBV [3]): 190 nM

CCc1sc(S(=O)(=O)N[C@H]2CCOC2)cc1C(=O)Nc1ccc(F)c(C)c1 [Compound 14, 2-ethyl-N-(4-fluoro-3-methyl-phenyl)-5-[[(3S)-tetrahydrofuran-3-yl]-sulfamoyl]thiophene-3-carboxamide]
EC50 (HBV [1]): 630 nM | CC50 at 4 days [2]: > 25000 nM | EC50 (HBV [3]): 130 nM

Cc1sc(S(=O)(=O)NC(C)(C)C(F)(F)F)cc1C(=O)Nc1cccc(C(F)(F)F)c1 [Compound 42, 2-methyl-5-[(2,2,2-trifluoro-1,1-dimethyl-ethyl)sulfamoyl]-N-[3-(trifluoromethyl)phenyl]thiophene-3-carboxamide]
EC50 (HBV [1]): 530 nM | CC50 at 4 days [2]: 16900 nM | EC50 (HBV [3]): > 1000 nM

Cc1cc(NC(=O)c2scc(S(=O)(=O)NC3(C)COC3)c2C)ccc1F [Compound 12, N-(4-fluoro-3-methyl-phenyl)-3-methyl-4-[(3-methyloxetan-3-yl)-sulfamoyl]thiophene-2-carboxamide]
EC50 (HBV [1]): 160 nM | CC50 at 4 days [2]: > 25000 nM | EC50 (HBV [3]): 190 nM

Cc1sc(S(=O)(=O)N[C@H](C)C(F)(F)F)cc1C(=O)Nc1ccc(F)c(Br)c1 [Compound 48, N-(3-bromo-4-fluoro-phenyl)-2-methyl-5-[[(1R)-2,2,2-trifluoro-1-methyl-ethyl]sulfamoyl]thiophene-3-carboxamide]
EC50 (HBV [1]): 160 nM | CC50 at 4 days [2]: 7730 nM | EC50 (HBV [3]): 280 nM

Cc1cc(NC(=O)c2cc(S(=O)(=O)N[C@H](C)CO)sc2Cl)ccc1F [Compound 3, 2-chloro-N-(4-fluoro-3-methyl-phenyl)-5-[[(1R)-2-hydroxy-1-methyl-ethyl]sulfamoyl]thiophene-3-carboxamide]
EC50 (HBV [1]): 210 nM | CC50 at 4 days [2]: > 25000 nM | EC50 (HBV [3]): 340 nM

Cc1sc(S(=O)(=O)NC2(C)COC2)cc1C(=O)Nc1cc(F)c(F)c(Cl)c1 [Compound 19, N-(3-chloro-4,5-difluoro-phenyl)-2-methyl-5-[(3-methyloxetan-3-yl)-sulfamoyl]thiophene-3-carboxamide]
EC50 (HBV [1]): 63 nM | CC50 at 4 days [2]: > 25000 nM | EC50 (HBV [3]): 100 nM

Cc1cc(NC(=O)c2cc(S(=O)(=O)N[C@H]3CCOC3)sc2C)ccc1F [Compound 7, N-(4-fluoro-3-methyl-phenyl)-2-methyl-5-[[(3S)-tetrahydrofuran-3-yl]-sulfamoyl]thiophene-3-carboxamide]
EC50 (HBV [1]): 170 nM | CC50 at 4 days [2]: > 25000 nM | EC50 (HBV [3]): 160 nM

— patent publication US10160743B2, “Sulphamoylthiophenamide derivatives and the use thereof as medicaments for the treatment of hepatitis B” (Janssen Sciences Ireland UC, priority 2013, dated 2018)
